pIC50: −log10 of the molar value. Read-outs that look alike come from different tables or passages of the source. Values belong to the molecule of their own block, whether it stands above or below them.
System: PMA-differentiated THP-1 cells
Assay: IL-1β production in PMA-differentiated THP-1 cells stimulated with gramicidin (hTHP-1 assay containing 2% fetal bovine serum; Procedures 1 and 2)
Assay type: cell-based, human
Conditions: 2% fetal bovine serum
Procedure, shortened: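 Human monocytic THP-1 cells, matured overnight with PMA at 20 ng/ml, are seeded in low-serum (2% FBS) RPMI. Test compounds, at final concentrations from 100 down to 0.0017 μM, precede gramicidin (5 μM, 2 h) by one hour. Released IL-1β is then determined by HTRF.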

[1] = Homo sapiens, THP-1, Table B3, hTHP-1 assay, class symbols, read-out: IC50
[2] = Homo sapiens, THP-1, Table B2, class symbols, read-out: hTHP-1 IC50
[3] = Homo sapiens, THP-1, Table B1, class symbols, read-out: Average IC50 of compounds in hTHP-1 assay: hTHP-1 IC50
[4] = Table B2, class symbols, read-out: hTHP-1 IC50
[5] = Table B3, hTHP-1 assay, class symbols, read-out: IC50
[6] = Homo sapiens, THP-1, Table B1, numeric bounds, read-out: Average IC50 of compounds in hTHP-1 assay: hTHP-1 IC50
[7] = Table B1, class symbols, read-out: Average IC50 of compounds in hTHP-1 assay: hTHP-1 IC50

pIC50 [1]: 6.00 to 6.70
SMILES: Cc1c(C2(F)CC2)nc2c(c1NC(=O)N=S(N)(=O)c1sc(C(C)(C)O)cc1F)CCC2 (single isomer, unassigned) [Example 685, (R) or (S)-3-fluoro-N′-((2-(1-fluorocyclopropyl)-3-methyl-6,7-dihydro-5H-cyclopenta [b]pyridin-4-yl)carbamoyl)-5-(2-hydroxypropan-2-yl) thiophene-2-sulfonimidamide]

pIC50 [2]: 5.30 to 6.00
SMILES: CCc1ccsc1S(N)(=O)=NC(=O)Nc1c2c(nc3c1CC[C@H]3C)CCC2 (stereo partly shown) [Compound 725a]

pIC50 [1]: 5.30 to 6.00
SMILES: CC(C)n1nc(S(N)(=O)=NC(=O)Nc2c3c(nc4c2CCC42CC2)CCC3)cc1CO (stereo not shown) [Example 595, 5-(Hydroxymethyl)-1-isopropyl-N′-((1′,5′,6′,7′-tetrahydro-2′H-spiro[cyclopropane-1,3′-dicyclopenta[b,e]pyridin]-8′-yl)carbamoyl)-1H-pyrazole-3-sulfonimidamide]

pIC50 [4]: 4.52 to 5.30
SMILES: CC(O)c1nc(C(C)(C)O)sc1S(=N)(=O)NC(=O)Nc1c2c(nc3c1CCC3)CCC2 (single isomer, unassigned) [Compound 643b, (S, R/S) or (R, R/S)-N-((1,2,3,5,6,7-hexahydrodicyclopenta [b,e]pyridin-8-yl)carbamoyl)-4-(1-hydroxyethyl)-2-(2-hydroxypropan-2-yl) thiazole-5-sulfonimidamide]

pIC50 [2]: 4.52 to 5.30
SMILES: Cc1c(CO)nc2c(c1NC(=O)N=S(N)(=O)c1cnc(C(C)(C)O)s1)CCC2 (stereo not shown) [Compound 619, N-((2-(hydroxymethyl)-3-methyl-6,7-dihydro-5H-cyclopenta[b]pyridin-4-yl)carbamoyl)-2-(2-hydroxypropan-2-yl)thiazole-5-sulfonimidamide]

pIC50 [5]: 4.52 to 5.30
SMILES: NS(=O)(=NC(=O)Nc1c2c(nc3c1CCC31CC1)CCC2)c1ccn(CCO)n1 (single isomer, unassigned) [Example 648, (S) or (R)-1-(2-hydroxyethyl)-N′-((1′,5′,6′,7′-tetrahydro-2′H-spiro[cyclopropane-1,3′-dicyclopenta[b,e]pyridin]-8′-yl)carbamoyl)-1H-pyrazole-3-sulfonimidamide]

pIC50 [1]: 6.00 to 6.70
SMILES: CC(=O)c1csc(S(N)(=O)=NC(=O)Nc2c3c(nc4c2CC[C@H]4C)CCC3)c1 (stereo partly drawn) [Example 627, 4-Acetyl-N′-(((R)-3-methyl-1,2,3,5,6,7-hexahydrodicyclopenta[b,e]pyridin-8-yl)carbamoyl)thiophene-2-sulfonimidamide]

pIC50 [2]: 6.70 to 7.40
SMILES: C[C@](O)(CO)c1cc(F)c(S(N)(=O)=NC(=O)Nc2c3c(nc4c2CCC42CC2)CCC3)s1 (stereo partly shown) [Compound 716a]

pIC50 [2]: 6.00 to 6.70
SMILES: CCn1cc(Cl)c(S(N)(=O)=NC(=O)Nc2c(C)c(C(F)(F)F)nc3c2CCC3)n1 (stereo not shown) [Compound 729]

pIC50 [2]: 6.00 to 6.70
SMILES: CC(C)(O)c1cncc(S(N)(=O)=NC(=O)Nc2c3c(nc4c2CCC4(C)C)CCC3)c1 (stereo not shown) [Compound 684, N′-((3,3-dimethyl-1,2,3,5,6,7-hexahydrodicyclopenta[b,e]pyridin-8-yl)carbamoyl)-5-(2-hydroxypropan-2-yl)pyridine-3-sulfonimidamide]

pIC50 (Homo sapiens, THP-1, Table B4, class symbols, read-out: hTHP-1 IC50): 5.30 to 6.00
SMILES: C[C@H]1CCc2c1nc1c(c2NC(=O)N=S(N)(=O)c2cnc([C@](C)(O)CO)s2)CCC1 (single isomer, unassigned) [Example 732]

pIC50 [2]: 4.52 to 5.30
SMILES: CC(C)(O)c1ncc(S(N)(=O)=NC(=O)Nc2c3c(nc4c2CCC4C(=O)O)CCC3)s1 (stereo not shown) [Compound 703, 8-(3-(Amino(2-(2-hydroxypropan-2-yl)thiazol-5-yl)(oxo)-λ^6-sulfanylidene)ureido)-1,2,3,5,6,7-hexahydrodicyclopenta[b,e] pyridine-3-carboxylic acid]

pIC50 [5]: 5.30 to 6.00
SMILES: CCn1cc(F)c(S(N)(=O)=NC(=O)Nc2c3c(nc4c2CC[C@H]4C)CCC3)n1 (single isomer, unassigned) [Example 670, (S) or (R)-1-ethyl-4-fluoro-N′-(((R)-3-methyl-1,2,3,5,6,7-hexahydrodicyclopenta[b,e]pyridin-8-yl)carbamoyl)-1H-pyrazole-3-sulfonimidamide]

pIC50 [2]: 4.52 to 5.30
SMILES: CC(C)(O)c1cccc(S(N)(=O)=NC(=O)Nc2c3c(nc4c2CCC4)CCC3)c1 (stereo not shown) [Compound 625, N′-((1,2,3,5,6,7-hexahydrodicyclopenta[b,e]pyridin-8-yl)carbamoyl)-3-(2-hydroxypropan-2-yl)benzenesulfonimidamide]

pIC50 [4]: 4.52 to 5.30
SMILES: CCc1cc(F)c(S(N)(=O)=NC(=O)Nc2c3c(nc4c2CC[C@H]4C)CCC3)s1 (single isomer, unassigned) [Compound 720b, (S) or (R)-5-Ethyl-3-fluoro-N′-(((R)-3-methyl-1,2,3,5,6,7-hexahydrodicyclopenta[b, e]pyridin-8-yl)carbamoyl)thiophene-2-sulfonimidamide]

Continued, molecule first:

SMILES: Cc1nc2c(c(NC(=O)N=S(N)(=O)c3cnc(C(C)(C)O)s3)c1C(C)C)CCC2 (stereo not shown) [Compound 116, 2-(2-hydroxypropan-2-yl)-N′-((3-isopropyl-2-methyl-6,7-dihydro-5H-cyclopenta[b]pyridin-4-yl)carbamoyl)thiazole-5-sulfonimidamide]
pIC50 [3]: 4.52 to 5.30

SMILES: CCc1c(C(F)(F)F)nc2c(c1NC(=O)N=S(N)(=O)c1cnc(C(C)(C)O)s1)CCC2 (single isomer, unassigned) [Compound 610a, (R) or (S)-N′-((3-ethyl-2-(trifluoromethyl)-6,7-dihydro-5H-cyclopenta[b]pyridin-4-yl)carbamoyl)-2-(2-hydroxypropan-2-yl)thiazole-5-sulfonimidamide]
pIC50 [4]: 5.30 to 6.00

SMILES: CC(C)n1ccc(S(N)(=O)=NC(=O)Nc2c3c(nc4c2CCC4)CCC3)n1 (single isomer, unassigned) [Compound 119b, (S) or (R)-N′-((1,2,3,5,6,7-hexahydrodicyclo-penta[b,e]pyridin-8-yl)carbamoyl)-1-isopropyl-1H-pyrazole-3-sulfonimidamide]
pIC50 [6]: < 4.52

SMILES: CC(C)c1ncc(F)c(C(C)C)c1NC(=O)N=S(N)(=O)c1cc(C(C)(C)O)cs1 (single isomer, unassigned) [Compound 148a, (R) or (S)-N′-((5-fluoro-2,4-diisopropylpyridin-3-yl)carbamoyl)-4-(2-hy-droxypropan-2-yl)thiophene-2-sulfonimidamide]
pIC50 [7]: 6.00 to 6.70

SMILES: CC1(C)CCc2c1nc1c(c2NC(=O)N=S(N)(=O)c2cnc(C(C)(O)CO)s2)CCC1 (single isomer, unassigned) [Compound 201a, (R, R) or (S, R) or (R, S) or (S, S)-2-(1,2-Dihydroxypropan-2-yl)-N′-((3,3-dimethyl-1,2,3,5,6,7-hexahydrodicyclopenta [b,e]pyridin-8-yl)carbamoyl) thiazole-5-sulfonimidamide]
pIC50 [3]: 6.70 to 7.40
pIC50 [4]: 7.40 to 8.10

SMILES: CC(C)(O)c1ncc(S(N)(=O)=NC(=O)Nc2c3c(nc4c2CCC4F)CCC3)s1 (single isomer, unassigned) [Compound 183b, (S,S) or (S,R)-N′-((3-fluoro-1,2,3,5,6,7-hexahydrodicyclo-penta[b,e]pyridin-8-yl)carbamoyl)-2-(2-hydroxypropan-2-yl)thiazole-5-sulfonimidamide]
pIC50 [6]: < 4.52

SMILES: CC(C)c1c(-c2ccccc2)nc2c(c1NC(=O)N=S(N)(=O)c1cnc(C(C)(C)O)s1)CCC2 (single isomer, unassigned) [Compound 145a, (R) or (S)-2-(2-hydroxy-propan-2-yl)-N′-((3-isopropyl-2-phenyl-6,7-dihydro-5H-cyclopenta[b]pyridin-4-yl)carbamoyl)thiazole-5-sulfonimidamide]
pIC50 [7]: 6.00 to 6.70

SMILES: CC(C)(O)c1nc(S(N)(=O)=NC(=O)Nc2c3c(nc4c2CCC4)CCC3)cs1 (single isomer, unassigned) [Compound 154a, (R) or (S)-N′-((1,2,3,5,6,7-hexahydrodicyclo-penta[b,e]pyridin-8-yl)carbamoyl)-2-(2-hydroxypropan-2-yl)thiazole-4-sulfonimidamide]
pIC50 [3]: 5.30 to 6.00

SMILES: CC(C)(O)c1ncc(S(N)(=O)=NC(=O)Nc2c3c(nc4c2CCC42CC2)CCC3)s1 (single isomer, unassigned) [Compound 136a, (S) or (R)-2-(2-hydroxy-propan-2-yl)-N′-((1′,5′,6′,7′-tetrahydro-2′H-spiro[cyclopropane-1,3′-dicyclopenta[b,e]pyridin]-8′-yl)carbamoyl)thiazole-5-sulfonimidamide]
pIC50 [7]: 5.30 to 6.00

SMILES: CC(C)(O)c1csc(S(N)(=O)=NC(=O)Nc2cc(CC(F)(F)F)nc3c2CCC3)c1 (single isomer, unassigned) [Compound 607a, (S) or (R)-4-(2-Hydroxypropan-2-yl)-N′-((2-(2,2,2-trifluoroethyl)-6,7-dihydro-5H-cyclopenta[b]pyridin-4-yl)carbamoyl) thiophene-2-sulfonimidamide]
pIC50 (Homo sapiens, THP-1, Table B2, numeric bounds, read-out: hTHP-1 IC50): < 4.52

SMILES: CN(C)Cc1ccc(S(N)(=O)=NC(=O)Nc2c3c(nc4c2CCC4)CCC3)cc1 (single isomer, unassigned) [Compound 130b, (R) or (S)-4-((dimethylamino)methyl)-N′-((1,2,3,5,6,7-hexahydro-dicyclopenta[b,e]pyridin-8-yl)carbamoyl)benzene-sulfonamidamide]
pIC50 [3]: 5.30 to 6.00

SMILES: CC(C)c1ncc(F)c(C(C)C)c1NC(=O)N=S(N)(=O)c1sc(C(C)(C)O)cc1F (stereo not shown) [Compound 106, 3-Fluoro-N′-((5-fluoro-2,4-diisopropylpyridin-3-yl)carbamoyl)-5-(2-hydroxypropan-2-yl)thiophene-2-sulfonimidamide]
pIC50 [3]: 6.70 to 7.40
